These results are taken from PubChem BioAssay (NCI).

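Results reflect a 48-hour exposure of cells in 96-well plates to compound at five concentrations. TGI: total growth inhibition.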

Assay in all cases: NCI-60 cell line screen, 48 h
Assay [1] deals with ACHN renal.
Assay [2] relates to NCI-H460 lung.
The subject of assay [3] is U251 CNS.
Assay [4] has as its system OVCAR-4 ovarian.
Assay [5] deals with SK-MEL-28 melanoma.
Assay [6] has as its system MOLT-4 leukemia.
The subject of assay [7] is SF-268 CNS.
Assay [8] has as its system NCI-H522 lung.
Assay [9] deals with HOP-92 NSCLC.

Regarding `CCOC(=O)c1cc(C2=CCNC2=O)c(-c2cc(C)no2)[nH]1`, the TGI in assay [1], in assay [2], in assay [3], in assay [4], in assay [5] and in assay [6] was greater than 100 µM each time. Moreover, the TGI is greater than 100 µM in assay [7] and 46.6 µM in assay [8].
As for `COc1ccc(/C=C2\C[C@H]3[C@@H]4CC=C5C[C@@H](OC(C)=O)CC[C@]5(C)[C@H]4CC[C@]3(C)C2=O)cc1OC`, the TGI in [1], in assay [2], in assay [4], in [5], in [6] and in [7] was greater than 100 µM in each case. Besides, the TGI in [9] and in [8] was greater than 100 µM in each case.
Turning to `Cc1ccc(N=NN(C)C(C)C(O)Cc2ccccc2)cc1` (stereo unspecified), the TGI in assay [1], in assay [2], in assay [3], in [4], in assay [5] and in [6] was greater than 100 µM each time. For the same compound, the TGI in assay [7] is greater than 100 µM.
`CCOC(=O)c1cc(-c2ccc([N+](=O)[O-])cc2)c([N+](=O)[O-])[nH]1`: the TGI in assay [1], in assay [2], in assay [3], in assay [4], in assay [6] and in assay [7] was greater than 10 µM in each case. The TGI in assay [9] is 5.49 µM; in assay [8] it was greater than 10 µM.
Regarding `O=C1NC(=S)N/C1=C\c1ccc(Cl)cc1`, the TGI in assay [3], in assay [4], in assay [5], in [6], in assay [7] and in assay [8] was greater than 100 µM in each case.
Turning to `COC(O)C(=O)c1c2c(cc3c1CCC3)CCC2` (stereo unspecified), the TGI in [1], in assay [2], in [3], in assay [4], in [5] and in assay [6] was greater than 100 µM each time. Further, the TGI in assay [7] and in [8] was greater than 100 µM throughout.
As to `CC(=O)Nc1ncc2c(n1)-c1ccccc1OC2c1ccccc1` (stereo unspecified), the TGI is 28.2 µM in assay [1]; greater than 100 µM in assay [2]; greater than 100 µM in assay [3]; 85.5 µM in [4]; greater than 100 µM in [6]; 63.5 µM in [7]. Moreover, the values for the TGI in [9] and in assay [8] were 41.4 µM and greater than 100 µM, respectively.
As to `CCC(=O)N(c1ccccc1)C(C)CN1CCC(O)(c2cccc(C(F)(F)F)c2)CC1` (stereo unspecified), the TGI in [1] is greater than 100 µM; in [3] it was greater than 100 µM; in assay [4], greater than 100 µM; in assay [5], 61.2 µM; in assay [6] it was 44.5 µM; in [9] it was 61.6 µM. The TGI in [8] turned out to be 39 µM.
In the case of `COc1ccc2nc3c(C)cc4ccccc4n3c2c1`, the TGI in assay [1], in assay [2], in assay [3], in [5], in [6] and in assay [7] was greater than 100 µM in each case. In [9], the TGI is greater than 100 µM.
Take `Cc1cccc2c(N)c3cccc(C(=O)NCC[N+](C)(C)Cc4ccc(S(C)(=O)=O)cc4)c3nc12`: the TGI in [1], in [2], in [3], in assay [4], in assay [5] and in [7] was greater than 100 µM each time. Besides, in assay [9], the TGI was greater than 100 µM.
As for `O=C(NC(=O)c1ccccc1)OC(c1ccccc1)C1CO1` (stereo unspecified), the TGI in [1], in assay [2], in assay [3], in assay [4], in [5] and in assay [6] was greater than 100 µM throughout. The TGI in assay [7] and in assay [8] was greater than 100 µM each time.
For the compound `COc1ccc(C(OC(=O)[C@H](O[Si](C)(C)C(C)(C)C)[C@@H](NC(=O)c2ccccc2)c2ccccc2)c2ccc(OC)cc2)cc1`, the TGI in assay [1], in assay [2], in assay [3], in assay [4], in assay [6] and in assay [7] was greater than 100 µM in each case. For the same compound, the TGI in assay [9] and in assay [8] was greater than 100 µM each time.
Turning to `O=S(=O)(O)c1ccc(Nc2ccnc3ccccc23)cc1`, the TGI in assay [1], in assay [3], in [4], in [5], in assay [6] and in [7] was greater than 100 µM throughout. The TGI in assay [9] and in [8] was greater than 100 µM each time.
`CCCCC(O)(c1ccccc1)C(O)(c1ccccc1)c1c(F)c(F)c(F)c(F)c1F` (stereo unspecified): the TGI in [1] is 72.6 µM; in [2], 54.4 µM; in [3] it was 32 µM; in assay [4], greater than 100 µM; in [5], 86.1 µM; in assay [6] it was 45.6 µM. In addition, the results for the TGI in [7] and in [9] were 53.1 µM and 44.8 µM, respectively.
Take `Cc1cn(CC2=NC3CCCCC3N2)c(=O)[nH]c1=O` (stereo unspecified): the TGI in [1], in assay [2], in assay [3], in [5], in assay [6] and in assay [7] was greater than 100 µM in each case. In addition, the TGI in assay [9] and in [8] was greater than 100 µM throughout.
With `Cc1ccc(C(=O)O)c(/C=C2\Cc3cc(C)cc(C)c3C2=O)c1`, the TGI in [1], in assay [2], in [3], in [5], in [6] and in assay [7] was greater than 100 µM throughout. Also, the TGI in assay [8] was greater than 100 µM.
